# Measurements reported in patent US20110111044A1, “NANOPARTICLE COMPOSITIONS FOR NUCLEIC ACIDS DELIVERY SYSTEM” (ENZON PHARMACEUTICALS, INC., priority 2008, published 2011).
# Tests used:
# ErbB3 mRNA [1] = assay: ErbB3 mRNA KD in tumor of 15PC3 human prostate cancer xenografted mice; type: in vivo; conditions: 45 mg/kg i.v. q3d×4 (G8)
# Description: (§1) The in vivo efficacy of nanoparticles described herein was evaluated in human prostate cancer xenografted mice. The 15PC3 human prostate tumors were established in nude mice by subcutaneous injection of 5×10^6 cells/mouse into the right auxiliary flank. When tumors reached the average volume of 100 mm^3, the mice were randomly grouped 5 mice per group. The mice of each group were treated with nanoparticle encapsulating antisense ErbB3 oligonucleotides (Sample NP5) or corresponding naked oligonucleotides (Oligo 2). The nanoparticles were given intravenously (i.v.) at 15 mg/kg/dose, 5 mg/kg/dose, 1 mg/kg/dose, or 0.5 mg/kg/dose at q3d×4 for 12 days. The dosage amount is based on the amount of oligonucleotides in the nanoparticles. The naked oligonucleotides were given intraperitoneally (i.p.) at 30 mg/kg/dose or intravenously at 25 mg/kg/dose or 45 mg/kg/dose at q3d×4 for 12 days. The mice were sacrificed twenty four hours after the final dose. Plasma samples were collected from the mice and stored at −20° C. Tumor and liver samples were also collected from the mice. The samples were analyzed for mRNA KD.
# ErbB3 mRNA [2] = assay: ErbB3 mRNA KD in liver of 15PC3 human prostate cancer xenografted mice; type: in vivo; conditions: 25 mg/kg/dose i.v. q3d×4 (G7)
# Description: as §1
substance,measurement,setting,value
"Oligo-2: antisense ErbB3 LNA, 5′-TAGcctgtcacttmCTmC-3′, phosphorothioate linkage; naked oligonucleotide (antisense 5'-TAGcctgtcactt^{m}CT^{m}C-3'; LNA, as printed in the source, key not given here)",ErbB3 mRNA expression inhibited in tumor,ErbB3 mRNA [1],about 37%
same,ErbB3 mRNA KD activity in liver,ErbB3 mRNA [2],about 87%
